Source: US6113907A, “Pharmaceutical grade St. John's Wort” (priority 1997, dated 2000)

Tests used:
stability = assay type: physicochemical; conditions: our data
Description: Some botanicals, such as St. John's Wort, are both temperature and light sensitive. For this type of botanical the material should be dry packed with a refrigerant or shipped under refrigeration and protected from light and air. […] Stability (in absence of air) was increased to six months in a preparation extracted with ethanol.
Phloroglucinola include hyperforin (prenylated derivative of phloroglucinol), adhyperforin (similar to the bitter principle of hops, adhumulone).

muscarinic M1 receptor = target: T1, muscarinic M1 receptor (Bos taurus, UniProt F1N5C5); assay: muscarinic M1 binding, [3H]-Pirenzepine, bovine striatal membranes; conditions: read-out: MuscM1 Binding % inhibition (PharmaPrint range)
T1 construct: Using receptors derived from bovine striatal membranes; from tissue; host or cells: bovine striatal membranes

[1] = test system: benzodiazepine receptor (BDZ); assay: benzodiazepine receptor (BDZ), [3H] PK11195, rat kidney membranes; assay type: binding; conditions: 10^-4; 60 min, 100 µM
Procedure: Fourteen additional bioassays were preformed on either extracts, fractions or reference compounds for this botanical. To measure inhibition of [^3 H] PK11195 to the benzodiazepine receptor (BDZ) a partially purified receptor preparation was made from rat kidney membranes. The final radioactive ligand concentration was 1 nM and non-specific binding was measured using 200 nM cold PK11195. The substances, receptor and ligand were reacted in 50 mM Tris-HCL (pH 7.7) at 0-4° C. for 60 minutes. The reaction was terminated by rapid filtration of the samples through glass fiber filters. […] The inhibition of [^3 H] pinrenzepine to the muscarinic M1 receptor (M1) by the substances was measured using a partially purified receptor from bovine striatal membranes. The final hot ligand concentration was 1 nM and non-specific binding was determined in the presence of 100 nM atropine. […] The reactions were terminated by rapid vacuum filtration of the reaction mixture through glass fiber filters. […] To assay for biological activity for the muscarinic receptor for the central nervous system, receptor was partially purified from rat cortical membranes. […] Non-specific binding was determined in the presence of 100 nM atropine. […] Non-specific binding was determined using 1 mM NMDA. […] Non-specific binding was determined using 100 μM AMPA.

Nitric oxide synthetase = assay: nitric oxide synthetase binding (NOS), [3H] NOARG, rat brain membranes; conditions: 10^-4; 60 min, 100 µM
Procedure: The inhibition of MAOA enzymatic activity (MAOA) was determined using rat liver mitochondrial membranes as a partially purified enzyme source. […] The reaction involves the conversion of the substrate to [^14 C] 5-hydroxyl indoleacetaldehyde+NH4^+. In brief, the enzyme is preincubated with the substances and the subtype specific blocker deprenyl (at 300 nM) for 60 minutes at 37° C. in 100 mM KPO4 (pH 7.2). Substrate is added and incubated for an additional 10 minutes. The reaction is terminated by the addition of 0.5 ml of 2M citric acid. […] Nitric oxide synthetase activity was measured using a binding assay (NOS). The receptors were made by partial purification of material from rat brain membranes. The radioligand used was [^3 H] L-N^G -Nitro-Arginine (NOARG) at a final concentration of 5 nM. Non-specific binding was determined using 100 μM of NOARG. The assay reactions were carried out in 50 mM Tris-HCl (pH 7.4) for 60 minutes at 25° C.

opiate receptor = opiate receptor non-selective, [3H] naloxone, rat forebrain; assay type: binding
Procedure: To determine the inhibitory activity of the substances for the dopamine receptor (dp) the following assay was preformed. A partial receptor preparation was prepared from bovine striatal membranes using [^3 H] spiperone as the ligand at a final concentration of 0.3 nM. To determine non-specific binding cold spiperone was tested at 1 μM. The reactions were carried out in 50 mM Tris-HCl (pH 7.7) containing 120 mM NaCl, 5 mM KCl, 2 mM CaCl2 and 1 mM MgCl2 at 37° C. for 60 minutes. […] The inhibitory properties of the substances for binding of ligand to the adenosine receptor (ADNS) was measured using a partially purified receptor preparation made from bovine striatal membranes. The radioligand used was [^3 H] 5'-N-ethylcarboxyamidoadenosine (NECA) at a final ligand concentration of 4 nM. Non-specific binding was determined in the presence of 10 μM NECA. The reactions were carried out in 50 mM Tris-HCL (pH 7.7) for 60 minutes at 25° C. […] To measure the inhibitory activity of the substances for the opiate receptor (Opiate) receptor was partially purified from rat forebrains. [^3 H] naloxone at 1 nM as the ligand used. Non-specific binding was determined in the presence of 1 μM of naloxone. […] Non-specific binding was determined in the presence of 1 μM nicotine sulfate. […] Non-specific binding was determined in the presence of 1 μM Tyr-° CRF. […]

MAOB = assay: NIMH/NovaScreen screen, MAOB; assay type: biochemical; conditions: up to 0.1 mM
Procedure: Through an NIMH screening contract (NovaScreen™, Baltimore, Md.) a commercially available crude extract from the fresh flowers and buds of Hypericum perforatum [1:1.5; hydro-alcohol (40:60) made from flowering tops; Herb Pharm] containing ~0.1% hypericin was dried under vacuum, dissolved in 4% DMSO, and diluted to an initial concentration of 50 mg/ml for in vitro screening in a battery of 39 receptor assays and two enzyme systems (Table 5, below).

herpes simplex = conditions: cited from earlier work
[2] = test system: human immunodeficiency virus type 1 (HIV-1); conditions: cited from earlier work
glioma cells = conditions: tissue culture; cited from earlier work

T1 sequence (F1N5C5 1-460): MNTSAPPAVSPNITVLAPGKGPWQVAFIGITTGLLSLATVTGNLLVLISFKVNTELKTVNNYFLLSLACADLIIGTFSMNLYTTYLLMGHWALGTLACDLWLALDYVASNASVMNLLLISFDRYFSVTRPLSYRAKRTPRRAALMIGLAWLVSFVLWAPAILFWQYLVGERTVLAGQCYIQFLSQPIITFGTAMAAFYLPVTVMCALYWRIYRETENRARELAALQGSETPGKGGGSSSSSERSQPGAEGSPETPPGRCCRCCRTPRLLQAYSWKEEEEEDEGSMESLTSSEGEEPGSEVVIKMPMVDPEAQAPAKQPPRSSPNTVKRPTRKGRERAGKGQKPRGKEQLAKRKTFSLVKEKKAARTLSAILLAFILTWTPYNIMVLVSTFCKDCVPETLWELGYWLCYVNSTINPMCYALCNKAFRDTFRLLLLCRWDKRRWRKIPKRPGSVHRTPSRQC

Compound: Cc1cc(O)c2c(=O)c3c(O)cc(O)c4c5c(O)cc(O)c6c(=O)c7c(O)cc(C)c8c1c2c(c34)c(c78)c65 [Hypericin, hypericin]
- stability in solution (stability): unstable in solution
- inhibition at 100 µM (muscarinic M1 receptor): 80 ± 20%
- BDZ [1]: 33%
- NOS (Nitric oxide synthetase): 48%
- OPNS (opiate receptor; 10^-4, Table 9I, 100 µM): 44%
- Opiate NS % inhibition (PharmaPrint range) (opiate receptor; 10^-4 M): 70 ± 35%
- MAO-B inhibition (MAOB): lacked significant MAOA or MAO-^B inhibition
- inhibition of herpes simplex (herpes simplex): inhibit
- inhibition of HIV-1 [2]: inhibit
- growth of glioma cells (glioma cells): inhibit the growth of glioma cells
